Assay results taken from patent US20230087118A1, “IMIDAZO[1,2-a][sequence] DERIVATIVES AND THEIR USE IN THE TREATMENT OF DISEASE” (priority 2019, published 2023).
Where a name gives a salt, the structure may show the parent alone.

Each compound was assayed against T1, IRAK4 (Homo sapiens, UniProt Q9NWZ3) (assay: biochemical). Conditions: not given.
T1 sequence (Q9NWZ3 1-460): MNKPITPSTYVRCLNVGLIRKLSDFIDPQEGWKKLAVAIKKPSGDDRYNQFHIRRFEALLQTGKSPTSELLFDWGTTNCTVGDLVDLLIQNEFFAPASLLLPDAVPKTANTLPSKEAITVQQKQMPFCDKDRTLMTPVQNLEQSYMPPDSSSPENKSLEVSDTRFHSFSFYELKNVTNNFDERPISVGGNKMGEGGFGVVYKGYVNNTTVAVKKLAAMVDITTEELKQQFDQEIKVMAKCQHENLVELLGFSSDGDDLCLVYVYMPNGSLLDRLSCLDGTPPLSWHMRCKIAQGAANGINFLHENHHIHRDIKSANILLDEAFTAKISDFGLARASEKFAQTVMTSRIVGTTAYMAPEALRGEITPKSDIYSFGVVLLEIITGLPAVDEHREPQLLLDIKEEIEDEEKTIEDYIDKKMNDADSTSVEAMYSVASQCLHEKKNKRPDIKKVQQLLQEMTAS

| Compound | IC50 |
| --- | --- |
| Cn1cccc(NC(=O)c2cn3cc(C45CCC(C)(C4)OC5)nc3cc2OC2CCC2)c1=O (centres unmarked) [Example 422, 7-Cyclobutoxy-N-(1-methyl-2-oxo-1,2-dihydropyridin-3-yl)-2-(1-methyl-2-oxabicyclo[2.2.1]heptan-4-yl)imidazo[1,2-a]pyridine-6-carboxamide] | 0.0005 µM |
| CC(C)Oc1cc2nc(C34CC(C3)C4)cn2cc1C(=O)Nc1cccc(C(F)F)n1 [Example 215] | 0.0013 µM |
| Cn1ccc(NC(=O)c2cn3cc(C45CCC(C)(C4)OC5)nc3cc2OC2CCCC2)n1 (centres unmarked) [Example 632, 7-(Cyclopentyloxy)-N-(1-methyl-1H-pyrazol-3-yl)-2-(1-methyl-2-oxabicyclo[2.2.1]heptan-4-yl)imidazo[1,2-a]pyridine-6-carboxamide] | 0.0018 µM |
| CC(C)Oc1cc2nc([C@]34CC[C@](C)(C3)OC4)cn2cc1C(=O)Nc1cc(F)n(C)n1 (single isomer, unassigned) [Example 602] | 0.0051 µM |
| CC(C)Oc1cc2nc(C34CCC(C3)OC4)cn2cc1C(=O)Nc1cccc(C(F)F)n1 (centres unmarked) [Example 246] | 0.0002 µM |
| Cn1nc(NC(=O)c2cn3cc(C45CCC(C)(C4)OC5)nc3cc2OC2CCC2)cc1F (centres unmarked) [Example 419, 7-Cyclobutoxy-N-(5-fluoro-1-methyl-1H-pyrazol-3-yl)-2-(1-methyl-2-oxabicyclo[2.2.1]heptan-4-yl)imidazo[1,2-a]pyridine-6-carboxamide] | 0.0033 µM |
| CCOc1nc(C(=O)Nc2cccc(C(F)(F)F)c2)cn2cc(C34COC(C)(C3)C4)nc12 [Example 497, 8-Ethoxy-2-(1-methyl-2-oxabicyclo[2.1.1]hexan-4-yl)-N-(3-(trifluoromethyl)phenyl)imidazo[1,2-a]pyrazine-6-carboxamide] | 0.007 µM |
| CCOc1nc(C(=O)Nc2cnn3cc(C)cnc23)cn2cc(C34COC(C)(C3)C4)nc12 [Example 498, 8-Ethoxy-2-(1-methyl-2-oxabicyclo[2.1.1]hexan-4-yl)-N-(6-methylpyrazolo[1,5-a]pyrimidin-3-yl)imidazo[1,2-a]pyrazine-6-carboxamide] | 0.0043 µM |
| CC(C)Oc1cc2nc(C3COCCO3)cn2cc1C(=O)Nc1cccc(C(F)F)n1 (centres unmarked) [Example 330, N-(6-(difluoromethyl)pyridin-2-yl)-2-(1,4-dioxan-2-yl)-7-isopropoxy-imidazo[1,2-a]pyridine-6-carboxamide] | 0.0002 µM |

Next, values leading:

| IC50 | Compound |
| --- | --- |
| 0.006 µM | CC(C)Oc1cc2nc(C34COC(C)(C3)C4)c(F)n2cc1C(=O)Nc1cnn2cccnc12 [Example 328, 3-Fluoro-7-isopropoxy-2-(1-methyl-2-oxabicyclo[2.1.1]hexan-4-yl)-N-(pyrazolo[1,5-a]pyrimidin-3-yl)imidazo[1,2-a]pyridine-6-carboxamide] |
| 0.0019 µM | CC12CC(c3cn4cc(C(=O)Nc5cnn6cccnc56)c(OC5CC5)cc4n3)(CO1)C2 [Example 551] |
| 0.0007 µM | CC(C)Oc1nc2nc(C34COC(C)(C3)C4)cn2cc1C(=O)Nc1cnn2cccc(F)c12 [Example 408, N-(4-fluoropyrazolo[1,5-a]pyridin-3-yl)-7-isopropoxy-2-(1-methyl-2-oxabicyclo[2.1.1]hexan-4-yl)imidazo[1,2-a]pyrimidine-6-carboxamide] |
| 0.0012 µM | CCC(C)Oc1nc2nc(C34COC(CF)(C3)C4)cn2cc1C(=O)Nc1cnn2cc(C)cnc12 (single isomer, unassigned) [Example 644] |
| 0.0006 µM | Cc1cnc2c(NC(=O)c3cn4cc(C56COC(C5)C6)nc4nc3OC(C)C)cnn2c1 [Example 432] |
| 0.0002 µM | COc1ncccc1NC(=O)c1cn2cc(C34CCC(C)(C3)OC4)nc2nc1OC(C)C (centres unmarked) [Example 248] |

Same assay, conditions: IRAK4 Biochemical Assay (1 mM ATP, 2 h) IC50 (μM), 1 mM ATP, 2 h, 100 pM IRAK4

| Compound | IC50 |
| --- | --- |
| C[C@@]12CC[C@@](c3cn4cc(C(=O)Nc5ccccn5)nc(OC5CCC5)c4n3)(CO1)C2 (single isomer, unassigned) [Example 622] | 0.004 µM |
| CC(C)Oc1cc2nc(C34COC(C)(C3)C4)cn2cc1C(=O)Nc1cccc(C#N)c1F [Example 257, N-(3-cyano-2-fluorophenyl)-7-isopropoxy-2-(1-methyl-2-oxabicyclo[2.1.1]hexan-4-yl)imidazo[1,2-a]pyridine-6-carboxamide trifluoroacetate] | 0.0003 µM |
